Assay [1] deals with T1, Human DYRK1B (Homo sapiens, UniProt Q9Y463).
T1 construct: purchased Invitrogen PR8350B (former PV4649)
As to the kind of experiment: DYRK1B Kinase TR-FRET (IMAP-Tb) Assay. In kind it is biochemical. From the text:
DYRK1B Kinase TR-FRET (IMAP-Tb) Assay Assay Principle The kinase TR-FRET (IMAP-Tb) assay uses a fluorescence labeled substrate peptide in the kinase reaction. Upon phosphorylation by the kinase, phosphopeptide is produced, which will be detected by the binding solution provided in IMAP TR-FRET binding kit. After the completion of the kinase reaction, the reaction will be stopped by adding the binding solution containing terbium tracer. This tracer is immobilized on the surface of the IMAP beads, which also contain metal ions on the beads that bind to the phospho-groups of the products. Thus the phosphorylated product of the reaction can enter into close proximity to the tracer, producing resonance energy transfer. Due to the long lifetime of terbium (Tb) fluorescence the detection can be run in time resolved mode, which virtually eliminates fluorescence interference from assay components or compounds. The TR-FRET signal measurement from this assay, given as an IC50 measurement, is a measure of a test compound's ability to interfere with the phosphorylation of the peptide substrate, that is it inhibits the phosphorylation of the substrate peptide by DYRK1B, and is thus a measure of the test compound's ability to inhibit the activity of DYRK1B. IC50 is the amount of test compound that inhibits 50% of the activity of DYRK1B in this assay. In some cases where the IC50 was not determined, then the % inhibition at 10 μM test compound concentration may be reported. Materials and Reagents • 1. Human DYRK1B: from Invitrogen. Part #PR8350B (former PV4649) • 2. Substrate Peptide: in-house synthesized: RRRFRPASPLRGPPK • 3. IMAP TR-FRET IPP Explorer Kit: from Molecular Devices. Part #R8157 • 4. Kinase Assay Buffer (KAB): 10 mM HEPES pH 7.0, 50 mM NaCl, 5 mM MgCl2, 1 mM DTT, 1 mM NaVO4, 200 μg/mL BSA (0.02%) • 5. Assay Plate: Remp polypropylene clear 384-well microplate. Cat#23490-102 • 6. Detection Plate: Costa black 384-well microplate. Cat #3710 Assay Procedure: this Assay was Performed as Follows: • 1. Transfer 1.5 μL of 20× compound solution to each well of an assay plate. • 2. Add to each well 22.5 μL of KAB Buffer. • 3. Add to each well 3 μL of the solution of DYRK1B and ATP. […] Add to each well 3 μL of the substrate peptide. The assay concentration is 1.0 μM • 5. Incubate the assay plates at 37° C. for 60 minutes. • 6. Add 18 μL of Detection Solution (1:800 diluted Progress bead stock, 1:400 diluted Tb stock, 80% Buffer A, and 20% Buffer B) into each well of detection plates. • 7. Transfer 6 μL of assay solution from the assay plate to the detection plate. • 8. Shake detection plates for 30 minutes. • 9. Read plates in Envision with wavelength set at excitation 340 nm for Tb, emission 490 nm, and […] 520 nm. • 10. Calculation: TR-FRET Signal=(Reading at […]/Reading at 490 nM)×2000000
On the technique in general: In TR-FRET formats the signal depends on donor and acceptor labels being close together.

In assay [2] the target is T2, Human DYRK1A (Homo sapiens, UniProt Q13627).
T2 construct: purchased Invitrogen PV3997
Put plainly: DYRK1A Kinase TR-FRET (IMAP-Tb) Assay. The class given is biochemical. As to conditions: TR-FRET (IMAP-Tb); ATP 70 μM; 37° C. for 60 minutes; averages of multiple runs; read-out: Enzyme IC50 (μM) DYRK1A. From the text:
DYRK1A Kinase TR-FRET (IMAP-Tb) Assay
The kinase TR-FRET (IMAP-Tb) assay uses a fluorescence labeled substrate peptide in the kinase reaction. Upon phosphorylation by the kinase, phosphopeptide is produced, which will be detected by the binding solution provided in IMAP TR-FRET binding kit. After the completion of the kinase reaction, the reaction will be stopped by adding the binding solution containing terbium tracer. This tracer is immobilized on the surface of the IMAP beads, which also contain metal ions on the beads that bind to the phospho-groups of the products. Thus the phosphorylated product of the reaction can enter into close proximity to the tracer, producing resonance energy transfer. Due to the long lifetime of terbium (Tb) fluorescence the detection can be run in time resolved mode, which virtually eliminates fluorescence interference from assay components or compounds.
The TR-FRET signal measurement from this assay, given as an IC50 measurement, is a measure of a test compound's ability to interfere with the phosphorylation of the peptide substrate, that is it inhibits the phosphorylation of the substrate peptide by DYRK1A, and is thus a measure of the test compound's ability to inhibit the activity of DYRK1A.
Materials and Reagents • 1. Human DYRK1A: from Invitrogen. Part #PV3997 • 2. Substrate Peptide: […] • 3. IMAP TR-FRET IPP Explorer Kit: from Molecular Devices. Part #R8157 • 4. Kinase Assay Buffer (KAB): 10 mM HEPES pH 7.0, 50 mM NaCl, 5 mM MgCl2, 1 mM DTT, 1 mM NaVO4, 200 ug/mL BSA (0.02%) • 5. Assay Plate: Remp polypropylene clear 384-well microplate. […] Detection Plate: Costa black 384-well microplate.
Assay Procedure: this Assay was Performed as Follows: • 1. Transfer 1.5 μL of 20× compound solution to each well of an assay plate. • 2. Add to each well 22.5 μL of KAB Buffer. • 3. Add to each well 3 μL of the solution of DYRK1A and ATP. […] Add to each well 3 μL of the substrate peptide. The assay concentration is 1.0 μM • 5. Incubate the assay plates at 37° C. for 60 minutes. • 6. Add 18 μL of Detection Solution (1:800 diluted Progress bead stock, 1:400 diluted Tb stock, 80% Buffer A, and 20% Buffer B) into each well of detection plates. • 7. Transfer 6 μL of assay solution from the assay plate to the detection plate. • 8. Shake detection plates for 30 minutes. • 9. Read plates in Envision with wavelength set at excitation 340 nm for Tb, emission 490 nm, and […] 520 nm. • 10.

For assay [3], the system named is SW620 human colon cancer cells. As to the kind of experiment: SW620 Cell Viability Assay. In kind it is cell-based. Conditions: SW-620, 96 h, CellTiter-Glo Luminescent Cell Viability Assay, 4 days incubation, read-out: Cellular EC50 (μM) SW620. As to the method:
SW620 Cell Viability Assay
1. Cell Plate Preparation: SW620 human colon cancer cells (known to express DYRK1B), obtained from ATCC, were seeded into 96-well plates at 3×10^3 cells/well in 50 μL of media. • Harvested the required number of cells (counts & viability determined by Guava Viacount). • Centrifuge cells to pellet and removed supernant. • Resuspended in growth media (50 μL/well) & pipetted thoroughly to break up clumps. • Setup for ˜100 wells/plate, therefore, VT=5 mL/plate @ […].
1A. Some cells (S—) were allowed to attach for 24 hrs, serum starved for 48 hrs, and then followed with test compound treatments.
Test compound solution were prepared in regular corresponding media supplemented with serum.
2. Test compound Preparation: Drugs were solubilized in either DMSO or media and prepared at various stock concentrations. • All compounds were incubated at 37° C. for 30 minutes and vortexed. • (5 mM stocks of test compound were prepared for non-soluble test compounds)
3. Test compound Plate Preparation: • The 10 mM test compound stock was diluted to a concentration of 100× the final Cmax concentration. • Then the test compound stock is diluted 50-fold in media and/or second test compound for a final Cmax concentration in the test compound plate. • The Cmax in the test compound plate (2% DMSO) is 2-fold higher than the final Cmax in the cell plate (60 μl, titrations were 1:3).
4. Viability Assay: This assay was performed as follows: • Transfer 50 μL of test compound solution per well from the test compound plate onto the cell plate prepared in Step #1. • Mix the plate with treated cells by pipetting up and down three times with 200 μL multi-channel pipette. • Incubate the cells in 5% CO2 incubator @ 37° C. for 4 days. • Run the CellTiter-Glo™ Luminescent Cell Viability Assay.
The results of this assay, given as EC50 values, indicate the concentration of test compound that inhibits tumor cell proliferation by 50%.
For orientation: ATP-based viability assays read luminescence as a measure of living cells.

[4] abbreviates: TR-FRET (IMAP-Tb), ATP 70 μM, 37° C. for 60 minutes, averages of multiple runs, read-out: Enzyme IC50 (μM) DYRK1B.

From US8362023B2, “Pyrazolo pyrimidines” (Hoffmann-La Roche Inc., priority 2011, dated 2013) come the findings set out here.

As usually defined, the IC50 is the concentration at which inhibition is half-maximal. By EC50 is commonly meant the concentration at which the effect is half-maximal.

Molecules are shown by their SMILES. Counter-ions that a name gives are not always drawn. Like-named read-outs stand apart in the source and are kept apart here.

T1 sequence (Q9Y463 whole entry): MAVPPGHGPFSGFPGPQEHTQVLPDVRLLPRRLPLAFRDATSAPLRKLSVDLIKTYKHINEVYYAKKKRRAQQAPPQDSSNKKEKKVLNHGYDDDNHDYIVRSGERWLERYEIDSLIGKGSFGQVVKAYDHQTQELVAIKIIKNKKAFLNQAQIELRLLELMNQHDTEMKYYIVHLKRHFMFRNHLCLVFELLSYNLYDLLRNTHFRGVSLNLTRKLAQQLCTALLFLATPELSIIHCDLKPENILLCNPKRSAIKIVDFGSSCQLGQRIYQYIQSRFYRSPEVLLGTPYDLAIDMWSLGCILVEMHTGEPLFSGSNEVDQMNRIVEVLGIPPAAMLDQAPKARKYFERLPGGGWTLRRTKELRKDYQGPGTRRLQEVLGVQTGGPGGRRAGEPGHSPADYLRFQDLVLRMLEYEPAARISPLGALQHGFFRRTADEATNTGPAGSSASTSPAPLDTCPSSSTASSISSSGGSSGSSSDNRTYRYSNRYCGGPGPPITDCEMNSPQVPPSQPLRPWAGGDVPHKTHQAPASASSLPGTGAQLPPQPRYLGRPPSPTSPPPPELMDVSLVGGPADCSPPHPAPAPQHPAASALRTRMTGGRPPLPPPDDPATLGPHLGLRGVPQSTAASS

For `N[C@H]1CC[C@H](Nc2ncc3c(-c4cccc(NCc5ccsc5)c4)n[nH]c3n2)CC1` [Example 58, N-(3-{3-[(Thiophen-3-ylmethyl)-amino]-phenyl}-1H-pyrazolo[3,4-d]pyrimidin-6-yl)-cyclohexane-1,4-diamine], the IC50 amounted to 0.762 µM in assay [1] (setting [4]) and 2.61 µM in assay [2]. The EC50 in assay [3] was found to be 6.41 µM.

On to `c1cc(NCc2cccs2)cc(-c2n[nH]c3nc(NCCN4CCOCC4)ncc23)c1` [Example 54, (2-Morpholin-4-yl-ethyl)-(3-{3-[(thiophen-2-ylmethyl)-amino]-phenyl}-1H-pyrazolo[3,4-d]pyrimidin-6-yl)-amine], for which the IC50 in assay [1] (setting [4]) was determined as 4.96 µM; in assay [2], 3.85 µM. For the same compound, the EC50 in assay [3] was > 10 µM.

For the compound `c1ccc(CNc2nccc(-c3n[nH]c4nc(NCCN5CCOCC5)ncc34)n2)cc1` [Example 61, [3-(2-Benzylamino-pyrimidin-4-yl)-1H-pyrazolo[3,4-d]pyrimidin-6-yl]-(2-morpholin-4-yl-ethyl)-amine; hydrochloride], the 50% inhibitory concentration (IC50) in assay [1] (setting [4]) amounted to 0.0958 µM; in assay [2], 0.061 µM. Moreover, the EC50 in assay [3] is > 10 µM.

As for `N[C@H]1CC[C@H](Nc2ncc3c(-c4ccnc(NCc5ccccc5)n4)n[nH]c3n2)CC1` [Example 70, N-[3-(2-Benzylamino-pyrimidin-4-yl)-1H-pyrazolo[3,4-d]pyrimidin-6-yl]-cyclohexane-1,4-diamine; hydrochloride], the IC50 in assay [1] (setting [4]) came out at 0.0125 µM; in assay [2], 0.0062 µM. Also, the 50% effective concentration (EC50) in assay [3] was > 10 µM.

In the case of `Clc1cccc(CNc2cccc(-c3n[nH]c4nc(NCCN5CCOCC5)ncc34)n2)c1` [Example 47, {3-[6-(3-Chloro-benzylamino)-pyridin-2-yl]-1H-pyrazolo[3,4-d]pyrimidin-6-yl}-(2-morpholin-4-yl-ethyl)-amine], the IC50 is 1.06 µM in assay [1] (setting [4]) and 1.39 µM in assay [2]. Further, the EC50 in assay [3] was > 10 µM.

`NCC(Nc1cccc(-c2n[nH]c3nc(N[C@H]4CC[C@H](N)CC4)ncc23)n1)c1ccccc1` (stereo partly shown) [Example 74, N-{3-[6-(2-Amino-1-phenyl-ethylamino)-pyridin-2-yl]-1H-pyrazolo[3,4-d]pyrimidin-6-yl}-cyclohexane-1,4-diamine; hydrochloride]: the IC50 in assay [1] (setting [4]) is < 0.0046 µM; in assay [2], 0.0046 µM. Also, the EC50 in assay [3] is > 10 µM.

As for `NCC(Nc1nccc(-c2n[nH]c3nc(NCCN4CCOCC4)ncc23)n1)c1ccccc1` (stereo not shown) [Example 83, N1-{4-[6-(2-Morpholin-4-yl-ethylamino)-1H-pyrazolo[3,4-d]pyrimidin-3-yl]-pyrimidin-2-yl}-1-phenyl-ethane-1,2-diamine; hydrochloride], the IC50 in assay [1] amounted to 0.0183 µM. Besides, in assay [3], the concentration giving a half-maximal response (EC50) was 0.56 µM.

For the compound `Clc1cccc(CNc2nccc(-c3n[nH]c4nc(NCC5CCNCC5)ncc34)n2)c1` [Example 88, {3-[2-(3-Chloro-benzylamino)-pyrimidin-4-yl]-1H-pyrazolo[3,4-d]pyrimidin-6-yl}-piperidin-4-ylmethyl-amine; hydrochloride], the IC50 amounted to 0.016 µM in assay [1] (setting [4]) and 0.0089 µM in assay [2].

For the compound `Clc1cccc(CNc2nccc(-c3n[nH]c4nc(NCCN5CCNCC5)ncc34)n2)c1` [Example 92, {3-[2-(3-Chloro-benzylamino)-pyrimidin-4-yl]-1H-pyrazolo[3,4-d]pyrimidin-6-yl}-(2-piperazin-1-yl-ethyl)-amine; hydrochloride], the IC50 in assay [1] (setting [4]) is 0.057 µM; in assay [2], 0.076 µM.

With `c1ccc(CNc2cccc(-c3n[nH]c4nc(NCCN5CCOCC5)ncc34)n2)cc1` [Example 45, [3-(6-Benzylamino-pyridin-2-yl)-1H-pyrazolo[3,4-d]pyrimidin-6-yl]-(2-morpholin-4-yl-ethyl)-amine], the IC50 in assay [1] (setting [4]) is 4.58 µM; in assay [2] it was 2.31 µM.

Consider `CN(C)CCNc1ncc2c(-c3ccnc(NCc4cccc(Cl)c4)n3)n[nH]c2n1` [Example 87, N-{3-[2-(3-Chloro-benzylamino)-pyrimidin-4-yl]-1H-pyrazolo[3,4-d]pyrimidin-6-yl}-N′,N′-dimethyl-ethane-1,2-diamine; hydrochloride], for which the half-inhibitory concentration (IC50) in assay [1] (setting [4]) was 0.69 µM; in assay [2], 0.31 µM.
